Laboratory results as given in US20180072997A1, “INHIBITORS OF HUMAN IMMUNODEFICIENCY VIRUS REPLICATION” (ViiV HEATHCARE UK (NO.5) LIMITED, priority 2015, published 2018).

Columns and labels:
[1] = test system: recombinant NL4-3 virus (Renilla luciferase in nef) in MT-2 cells; experiment: whole plant or invertebrate; format: cell-based, HIV; conditions: Renilla, NL43, MT-2 cells infected for 4-5 days with recombinant NL4-3 Renilla luciferase virus; luciferase activity
Description: HIV cell culture assay—MT-2 cells, 293T cells and the proviral DNA clone of NL4-3 virus were obtained from the NIH AIDS Research and Reference Reagent Program. MT-2 cells were propagated in RPMI 1640 media supplemented with 10% heat inactivated fetal bovine serum (FBS), 100 μg/ml penicillin G and up to 100 units/mL streptomycin. The 293T cells were propagated in DMEM media supplemented with 10% heat inactivated FBS, 100 μg/mL penicillin G and 100 μg/mL streptomycin. A recombinant NL4-3 proviral clone, in which a section of the nef gene was replaced with the Renilla luciferase gene, was used to make the reference virus used in these studies. The recombinant virus was prepared through transfection of the recombinant NL4-3 proviral clone into 293T cells using Transit-293 Transfection Reagent from Mirus Bio LLC (Madison, Wis.). Supernatent was harvested after 2-3 days and the amount of virus present was titered in MT-2 cells using luciferase enzyme activity as a marker by measuring luciferase enzyme activity. Luciferase was quantitated using the EnduRen Live Cell Substrate from Promega (Madison, Wis.). Antiviral activities of compounds toward the recombinant virus were quantified by measuring luciferase activity in MT-2 cells infected for 4-5 days with the recombinant virus in the presence of serial dilutions of the compound.
(Johnson V A, Byington R T. Infectivity Assay. In Techniques in HIV Research. ed. Aldovini A, Walker BD. 71-76. New York: Stockton Press.1990).

[2] = Compound cytotoxicity, XTT-based colorimetric assay; format: cell-based; conditions: human, uninfected MT2 cells, day 4, XTT
Description: Compound cytotoxicity and the corresponding CC50 values were determined using the same protocol as described in the antiviral assay except that uninfected cells were used. Cytotoxicity was assessed on day 4 in uninfected MT2 cells by using a XTT (2,3-bis[2-Methoxy-4-nitro-5-sulfophenyl]-2H-tetrazolium-5-carboxyanilide inner salt)-based colorimetric assay (Sigma-Aldrich, St Louis, Mo.).

| Structure (SMILES) | EC50 [1] [nM] | CC50 at 4 days [2] [nM] |
| --- | --- | --- |
| COc1ccc(N(C)C(=O)[C@H](Cc2ccccc2)NC(=O)Cn2c(=O)n(CC(=O)N[C@@H](Cc3ccccc3)C(=O)N(C)c3ccc(OC)cc3)c3c(Cl)cccc32)cc1 [Example 73] | 70 | 39900 |
| COc1ccc(N(C)C(=O)[C@H](Cc2cc(F)cc(F)c2)NC(=O)Cn2c(=O)n(CC(=O)N[C@@H](Cc3cc(F)cc(F)c3)C(=O)N(C)c3ccc(OC)cc3)c3c(Cl)cccc32)cc1 [Example 74] | 30 | 11300 |
| COc1ccc(N(C)C(=O)[C@H](Cc2ccccc2)NC(=O)Cn2c(=O)n(CC(=O)N[C@@H](Cc3ccccc3)C(=O)N(C)c3ccc(OC)cc3)c3cc(F)ccc32)cc1 [Example 75] | 80 | 11500 |
| COc1ccc(N(C)C(=O)[C@H](Cc2cc(F)cc(F)c2)NC(=O)Cn2c(=O)n(CC(=O)N[C@@H](Cc3cc(F)cc(F)c3)C(=O)N(C)c3ccc(OC)cc3)c3cc(F)ccc32)cc1 [Example 76] | 30 | 11400 |
| COc1ccc(N(C)C(=O)[C@H](Cc2ccccc2)NC(=O)CC(C)(C)CC(=O)N[C@@H](Cc2ccccc2)C(=O)N(C)c2ccc(OC)cc2)cc1 [Example 77] | 3980 | 9600 |
| COc1ccc(N(C)C(=O)[C@H](Cc2ccccc2)NC(=O)CC2(CC(=O)N[C@@H](Cc3ccccc3)C(=O)N(C)c3ccc(OC)cc3)CCCC2)cc1 [Example 78] | 50000 | ≥ 50000 |
| COc1ccc(N(C)C(=O)[C@H](Cc2ccccc2)NC(=O)c2ccccc2-c2ccccc2C(=O)N[C@@H](Cc2ccccc2)C(=O)N(C)c2ccc(OC)cc2)cc1 [Example 79] | 1400 | ≥ 100000 |
| COc1ccc(N(C)C(=O)[C@H](Cc2ccccc2)NC(=O)/C=C\C(=O)N[C@@H](Cc2ccccc2)C(=O)N(C)c2ccc(OC)cc2)cc1 [Example 80] | 160 | 12800 |
| CN(C(=O)[C@H](Cc1cc(F)cc(F)c1)NC(=O)c1cccc(C(=O)N[C@@H](Cc2cc(F)cc(F)c2)C(=O)N(C)c2ccc3scnc3c2)c1Cl)c1ccc2scnc2c1 [Example 82] | 70 | ≥ 100000 |
| COc1ccc(N(C)C(=O)[C@H](Cc2ccccc2)NC(=O)Cn2c(=O)n(CC(=O)N[C@@H](Cc3ccccc3)C(=O)N(C)c3ccc(OC)cc3)c3cc(OC)ccc32)cc1 [Example 83] | 90 | 6200 |
| COc1ccc(N(C)C(=O)[C@H](Cc2cc(F)cc(F)c2)NC(=O)Cn2c(=O)n(CC(=O)N[C@@H](Cc3cc(F)cc(F)c3)C(=O)N(C)c3ccc(OC)cc3)c3cc(OC)ccc32)cc1 [Example 84] | 40 | 6900 |
| CN(C(=O)[C@H](Cc1ccccc1)NC(=O)NS(=O)(=O)N[C@@H](Cc1ccccc1)C(=O)N(C)c1ccccc1)c1ccccc1 [Example 85] | 970 | ≥ 100000 |
| CN(C(=O)[C@H](Cc1cc(F)cc(F)c1)NC(=O)NS(=O)(=O)N[C@@H](Cc1cc(F)cc(F)c1)C(=O)N(C)c1ccccc1)c1ccccc1 [Example 86] | 90 | 24500 |
| COc1ccc(N(C)C(=O)[C@H](Cc2ccccc2)NC(=O)Cn2c(=O)n(CC(=O)N[C@@H](Cc3ccccc3)C(=O)N(C)c3ccc(OC)cc3)c3cc([N+](=O)[O-])ccc32)cc1 [Example 87] | 90 | 11100 |
| COc1ccc(N(C)C(=O)[C@H](Cc2cc(F)cc(F)c2)Nc2ncc(-c3cnc(N[C@@H](Cc4cc(F)cc(F)c4)C(=O)N(C)c4ccc(OC)cc4)nc3)cn2)cc1 [Example 88] | 13700 | 20800 |
| COc1ccc(N(C)C(=O)[C@H](Cc2ccccc2)NC(=O)Cn2c(=O)n(CC(=O)N[C@@H](Cc3ccccc3)C(=O)N(C)c3ccc(OC)cc3)c3cc(N)ccc32)cc1 [Example 90] | 340 | 22700 |
| COc1ccc(N(C)C(=O)[C@H](Cc2ccccc2)NC(=O)Cn2c(=O)c3ccccc3c(=O)n2CC(=O)N[C@@H](Cc2ccccc2)C(=O)N(C)c2ccc(OC)cc2)cc1 [Example 92] | 290 | 10100 |
| COc1ccc(N(C)C(=O)[C@H](Cc2cc(F)cc(F)c2)NC(=O)Cn2c(=O)c3ccccc3c(=O)n2CC(=O)N[C@@H](Cc2cc(F)cc(F)c2)C(=O)N(C)c2ccc(OC)cc2)cc1 [Example 93] | 90 | 5700 |
| COc1ccc(N(C)C(=O)[C@H](Cc2ccccc2)NC(=O)Cn2c(=O)c(=O)n(CC(=O)N[C@@H](Cc3ccccc3)C(=O)N(C)c3ccc(OC)cc3)c3ccccc32)cc1 [Example 94] | 160 | 23200 |

| Structure (SMILES) | EC50 [1] [nM] | CC50 at 4 days [2] [nM] |
| --- | --- | --- |
| COc1ccc(N(C)C(=O)[C@H](Cc2ccccc2)NC(=O)COc2nc3ccccc3n(CC(=O)N[C@@H](Cc3ccccc3)C(=O)N(C)c3ccc(OC)cc3)c2=O)cc1 [Example 95] | 210 | ≥ 50000 |
| COc1ccc(N(C)C(=O)[C@H](Cc2cc(F)cc(F)c2)NC(=O)COc2nc3ccccc3n(CC(=O)N[C@@H](Cc3cc(F)cc(F)c3)C(=O)N(C)c3ccc(OC)cc3)c2=O)cc1 [Example 96] | 120 | ≥ 50000 |
| COc1ccc(N(C)C(=O)[C@H](Cc2ccccc2)NC(=O)Cn2c(=O)n(CC(=O)N[C@@H](Cc3ccccc3)C(=O)N(C)c3ccc(OC)cc3)c3cc(NC(C)=O)ccc32)cc1 [Example 97] | 2600 | ≥ 100000 |
| COc1ccc(N(C)C(=O)[C@H](Cc2cc(F)cc(F)c2)NC(=O)Cn2c(=O)c(=O)n(CC(=O)N[C@@H](Cc3cc(F)cc(F)c3)C(=O)N(C)c3ccc(OC)cc3)c3ccccc32)cc1 [Example 98] | 30 | 11200 |
| COc1ccc(N(C)C(=O)[C@H](Cc2ccccc2)NC(=O)c2cncc(C(=O)N[C@@H](Cc3ccccc3)C(=O)N(C)c3ccc(OC)cc3)c2)cc1 [Example 99] | 20 | 1800 |
| COc1ccc(N(C)C(=O)[C@H](Cc2ccccc2)NC(=O)Cn2c(=O)c3ccccc3n(CC(=O)N[C@@H](Cc3ccccc3)C(=O)N(C)c3ccc(OC)cc3)c2=O)cc1 [Example 100] | 70 | ≥ 100000 |
| COc1ccc(N(C)C(=O)[C@H](Cc2cc(F)cc(F)c2)NC(=O)Cn2c(=O)c3ccccc3n(CC(=O)N[C@@H](Cc3cc(F)cc(F)c3)C(=O)N(C)c3ccc(OC)cc3)c2=O)cc1 [Example 101] | 30 | ≥ 100000 |
| COc1ccc(N(C)C(=O)[C@H](Cc2ccccc2)NC(=O)c2cc(C)cc(C(=O)N[C@@H](Cc3ccccc3)C(=O)N(C)c3ccc(OC)cc3)c2)cc1 [Example 102] | 50 | ≥ 33300 |
| COc1ccc(N(C)C(=O)[C@H](Cc2ccccc2)NC(=O)c2cc(C(=O)N[C@@H](Cc3ccccc3)C(=O)N(C)c3ccc(OC)cc3)cc(C(C)(C)C)c2)cc1 [Example 103] | 150 | ≥ 33300 |
| COc1ccc(N(C)C(=O)[C@H](Cc2ccccc2)NC(=O)[C@H](C)NC(=O)N[C@@H](C)C(=O)N[C@@H](Cc2ccccc2)C(=O)N(C)c2ccc(OC)cc2)cc1 [Example 104] | 130 | 31000 |
| COc1ccc(N(C)C(=O)[C@H](Cc2ccccc2)NC(=O)c2ccnc(C(=O)N[C@@H](Cc3ccccc3)C(=O)N(C)c3ccc(OC)cc3)c2)cc1 [Example 105] | 680 | 3100 |
| COc1ccc(N(C)C(=O)[C@H](Cc2ccccc2)NC(=O)c2ccc(F)c(C(=O)N[C@@H](Cc3ccccc3)C(=O)N(C)c3ccc(OC)cc3)c2)cc1 [Example 106] | 50 | 6300 |
| CN(C(=O)[C@H](Cc1cc(F)cc(F)c1)NC(=O)c1cccc(S(=O)(=O)N[C@@H](Cc2cc(F)cc(F)c2)C(=O)N(C)c2ccc3scnc3c2)c1)c1ccc2scnc2c1 [Example 107] | 300 | ≥ 100000 |
| COc1ccc(N(C)C(=O)[C@H](Cc2ccccc2)NC(=O)c2cccc(S(=O)(=O)N[C@@H](Cc3ccccc3)C(=O)N(C)c3ccc(OC)cc3)c2)cc1 [Example 108] | 720 | ≥ 100000 |
| COc1ccc(N(C)C(=O)[C@H](Cc2ccccc2)Nc2ncnc(N[C@@H](Cc3ccccc3)C(=O)N(C)c3ccc(OC)cc3)n2)cc1 [Example 109] | 6870 | 65400 |
| COc1ccc(N(C)C(=O)[C@H](Cc2ccccc2)NC(=O)c2cc(Br)cc(C(=O)N[C@@H](Cc3ccccc3)C(=O)N(C)c3ccc(OC)cc3)c2)cc1 [Example 110] | 210 | ≥ 100000 |
| COc1ccc(N(C)C(=O)[C@H](Cc2ccccc2)NC(=O)c2cncc(C(=O)N[C@@H](Cc3ccccc3)C(=O)N(C)c3ccc(OC)cc3)n2)cc1 [Example 111] | 960 | ≥ 100000 |
| COc1ccc(N(C)C(=O)[C@H](Cc2ccccc2)NC(=O)c2cc(C(=O)N[C@@H](Cc3ccccc3)C(=O)N(C)c3ccc(OC)cc3)ncn2)cc1 [Example 112] | 1710 | 1300 |
| COc1ccc(N(C)C(=O)[C@H](Cc2ccccc2)NC(=O)c2cc(C(=O)N[C@@H](Cc3ccccc3)C(=O)N(C)c3ccc(OC)cc3)n(C)n2)cc1 [Example 115] | 2130 | ≥ 100000 |
